Data set [1] can be described thus: Hygroscopicity: increase in weight and appearance after exposure to humidity. In kind it is physicochemical. The conditions noted are these: exposure to 70±5% relative humidity, at 25° C. for 24 hours.
Data set [2] is described as follows: Hygroscopicity of the solid as stated in the preparation examples. The data set is classed as physicochemical.
For data set [3] the following is noted: background statement; cited from earlier work.

Counter-ions that a name gives are not always drawn.

Regarding `CC(=O)O[C@H](CC(=O)O)C[N+](C)(C)C.[Cl-]` [Acetyl-L-carnitine chloride, reference compound], in data set [1], the Appearance entry is given as “clumped mass” and the “Increase in weight (%)” value worked out at 8%.

As to `CC(=O)O[C@H](CC(=O)[O-])C[N+](C)(C)C` [Acetyl-L-carnitine inner salt, reference compound], the “Hygroscopicity of the solid” value in data set [2] was “Very Hygroscopic”. For the same molecule, in data set [1], the Appearance result is “deliquescent” and the “Increase in weight (%)” value was determined as 19%.

On to `C[N+](C)(C)C[C@H](O)CC(=O)O.C[N+](C)(C)C[C@H](O)CC(=O)O.O=C([O-])C(O)C(O)C(=O)[O-]` [L(−)-carnitine tartrate], for which the “Hygroscopicity (known salts, prior art)” value in data set [3] is recorded as “non-hygroscopic”.

As for `C[N+](C)(C)C[C@H](O)CC(=O)[O-]` [L-carnitine inner salt, reference compound], in data set [1], the Appearance entry was “deliquescent” and the “Increase in weight (%)” value came to 23%.

Take `Cl.N[C@@H](CS)C(=O)O` [L-cysteine Hydrochloride]: the “Hygroscopicity of the solid” value in data set [2] was “Very Hygroscopic”.

For `CCC(=O)O[C@H](CC(=O)O)C[N+](C)(C)C.[Cl-]` [Propionyl-L-carnitine chloride, reference compound], in data set [1], the Appearance result is reported as “deliquescent” and the “Increase in weight (%)” value stood at 15%.

`CC(=O)O[C@H](CC(=O)O)C[N+](C)(C)C.O=C([O-])/C=C/C(=O)O` [acetyl L(−)-carnitine acid fumarate]: the “Hygroscopicity (known salts, prior art)” value in data set [3] was “strongly hygroscopic”.

With “Acetyl L-carnitine L-arginate Hydrochloride [Example 5]”, in data set [2], the “Hygroscopicity of the solid” value is listed as “non-hygroscopic”. Further, in data set [1], the Appearance entry was “no variation” and the “Increase in weight (%)” value is 0.45%.

Take “Acetyl L-carnitine L-asparaginate Hydrochloride [Example 9]”: the “Hygroscopicity of the solid” value in data set [2] is on record as “non-hygroscopic”. Also, in data set [1], the Appearance result was “no variation” and the “Increase in weight (%)” value was determined as 0.3%.

Turning to “Acetyl L-carnitine L-aspartate Hydrochloride [Example 8]”, the “Hygroscopicity of the solid” value in data set [2] is on record as “non-hygroscopic”. In data set [1], the Appearance result is “no variation” and the “Increase in weight (%)” value is recorded as 0.7%.

In the case of “Acetyl L-carnitine L-cysteinate Hydrochloride [Example 4]”, the “Hygroscopicity of the solid” value in data set [2] was “non-hygroscopic”. In addition, in data set [1], the Appearance entry was “no variation” and the “Increase in weight (%)” value is recorded as 0.6%.

“Acetyl L-carnitine L-glutamate Hydrochloride [Example 6]”: the “Hygroscopicity of the solid” value in data set [2] is on record as “non-hygroscopic”. Moreover, in data set [1], the Appearance entry is listed as “no variation” and the “Increase in weight (%)” value is 0.4%.

Regarding “Acetyl L-carnitine L-glutaminate Hydrochloride [Example 7]”, the “Hygroscopicity of the solid” value in data set [2] is listed as “non-hygroscopic”. In data set [1], the Appearance result is recorded as “no variation” and the “Increase in weight (%)” value was 0.6%.

Regarding “Acetyl L-carnitine L-isoleucinate hydrochloride [Example 1]”, the “Hygroscopicity of the solid” value in data set [2] is “non-hygroscopic”. Further, in data set [1], the Appearance result is “no variation” and the “Increase in weight (%)” value worked out at 0.2%.

On to L(−)-carnitine acid fumarate, for which, in data set [3], the “Hygroscopicity (known salts, prior art)” value is listed as “non-hygroscopic”.
